Measured values reported in patent US6380207B2, “Glucocortiocoid-selective antiinflammatory agents” (Abbott Laboratories, priority 1998, dated 2002).

How the values were obtained:
[1] = target: T1, human glucocorticoid receptor-α [GRX] isoform (Homo sapiens, UniProt P04150); test: Radioligand binding with human glucocorticoid receptor cytosol ([3H]-dexamethasone); conditions: [3H]-Dex competition, 4° C. overnight, Cheng-Prusoff, read-out: Ki (nM) GR
T1 construct: purchased Ligand Pharmaceuticals (San Diego, Calif.); host or cells: insect SF21 cells (baculovirus)
T1 sequence (P04150 1-777): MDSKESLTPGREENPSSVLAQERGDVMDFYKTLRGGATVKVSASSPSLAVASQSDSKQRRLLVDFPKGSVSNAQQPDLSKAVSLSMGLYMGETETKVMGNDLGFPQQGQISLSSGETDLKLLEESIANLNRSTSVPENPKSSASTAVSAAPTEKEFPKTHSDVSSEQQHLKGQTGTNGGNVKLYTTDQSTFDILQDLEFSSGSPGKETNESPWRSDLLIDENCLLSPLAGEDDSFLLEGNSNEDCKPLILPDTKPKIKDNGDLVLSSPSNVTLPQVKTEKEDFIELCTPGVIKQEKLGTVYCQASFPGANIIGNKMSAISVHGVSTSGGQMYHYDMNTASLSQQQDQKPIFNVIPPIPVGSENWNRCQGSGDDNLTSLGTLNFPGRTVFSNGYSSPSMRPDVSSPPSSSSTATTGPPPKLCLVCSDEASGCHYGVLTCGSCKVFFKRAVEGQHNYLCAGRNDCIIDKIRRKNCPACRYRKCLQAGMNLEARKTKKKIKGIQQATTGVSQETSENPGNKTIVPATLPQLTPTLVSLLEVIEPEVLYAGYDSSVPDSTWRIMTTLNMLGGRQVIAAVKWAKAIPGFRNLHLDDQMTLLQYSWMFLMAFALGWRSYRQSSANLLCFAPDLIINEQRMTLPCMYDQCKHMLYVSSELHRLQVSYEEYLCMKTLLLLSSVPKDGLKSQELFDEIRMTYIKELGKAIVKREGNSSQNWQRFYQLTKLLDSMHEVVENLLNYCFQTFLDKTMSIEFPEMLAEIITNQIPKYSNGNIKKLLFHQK
Description: (§1) The procedure described in Anal. Biochem. 1970, 37, 244-252, hereby incorporated by reference, was used. Briefly, cytosol preparations of human glucocorticoid receptor-α [GRX] isoform and human progesterone receptor-A [PRA] isoform were obtained from Ligand Pharmaceuticals (San Diego, Calif.). Both receptor cDNAs were cloned into baculovirus expression vectors and expressed in insect SF21 cells. [^3H]-dexamethasone (Dex, specific activity 82-86 Ci/mmole) and [^3H]-progesterone (Prog, specific activity 97-102 Ci/mmol) were purchased from Amersham Life Sciences (Arlington Heights, Ill.). Glass fiber type C multiscreen MAFC NOB plates were from Millipore (Burlington, Mass.). Hydroxyapatide Bio-Gel HTP gel was from Bio-Rad Laboratories (Hercules, Calif.). Tris(hydroxymethyl)aminomethane (Tris), ethylenediaminetetraacetic acid (EDTA), glycerol, dithiothreitol (DTT) and sodium moylybdate were obtained from Sigma Chemicals (St. Louis, Mo.). Microscint-20 scintillation fluid was from Packard Instrument (Meriden, Conn.).
(§2) Stock solutions (32 mM) of compounds were prepared in dimethylsulfoxide (DMSO), and 50× solutions of test compounds were prepared from the 32 mM solution with a 50:50 mixture of DMSO/ethanol. The 50× solution was then diluted with binding buffer that contained 10 mM Tri-HCl, 1.5 mM EDTA, 10% glycerol, 1 mM DTT, 20 mM sodium molybdate, pH 7.5 @ 4° C. 1% DMSO/ethanol was present in the binding assay.
GRX and PRA binding reactions were performed in Millipore Multiscreen plates. For GR binding assays, [^3H]-Dex (˜35,000 dpm (˜0.9 nM)), GRX cytosol (˜35 μg protein), test compounds and binding buffer were mixed in a total volume of 200 μL and incubated at 4° C. overnight in a plate shaker. Specific binding was defined as the difference between binding of [^3H]Dex in the absence and in the presence of 1 μM unlabelled Dex.
(§3) After an overnight incubation, 50 μL of hydroxyapatite (25% weight/volume) slurry were added to each well and plates were incubated for 10 min at […] in a plate shaker. Plates were suctioned with a Millipore vacuum manifold and each well was rinsed with 300 μL of ice-cold binding buffer. A 250 μL aliquot of Packard Microscint-20 was added to each well and the wells were shaken at room temperature for 20 minutes. The amount of radioactivity was determined with a Packard TopCount plate reader.
(§4) The concentration of test compounds that inhibited 50% of specific binding (IC50) was determined from a Hill analysis of the competitive binding experiments. The Ki of test compounds was determined using the Cheng-Prusoff equation Ki=IC50/(1+[L*]/[KL]) where L* is the concentration of radioligand and KL is the dissociation constant of the radioligand determined from saturation analysis. For GRX, KL was ˜1.5 nM, and for PRA, KL was ˜4.5 nM.

[2] = target: T2, human progesterone receptor-A [PRA] isoform (Homo sapiens, UniProt P06401); test: Radioligand binding with human progesterone receptor cytosol ([3H]-progesterone); conditions: [3H]Prog competition, 4° C. overnight, Cheng-Prusoff, read-out: Ki (nM) PR
T2 construct: purchased Ligand Pharmaceuticals (San Diego, Calif.); host or cells: insect SF21 cells (baculovirus)
T2 sequence (P06401 1-769 isoform P06401-2): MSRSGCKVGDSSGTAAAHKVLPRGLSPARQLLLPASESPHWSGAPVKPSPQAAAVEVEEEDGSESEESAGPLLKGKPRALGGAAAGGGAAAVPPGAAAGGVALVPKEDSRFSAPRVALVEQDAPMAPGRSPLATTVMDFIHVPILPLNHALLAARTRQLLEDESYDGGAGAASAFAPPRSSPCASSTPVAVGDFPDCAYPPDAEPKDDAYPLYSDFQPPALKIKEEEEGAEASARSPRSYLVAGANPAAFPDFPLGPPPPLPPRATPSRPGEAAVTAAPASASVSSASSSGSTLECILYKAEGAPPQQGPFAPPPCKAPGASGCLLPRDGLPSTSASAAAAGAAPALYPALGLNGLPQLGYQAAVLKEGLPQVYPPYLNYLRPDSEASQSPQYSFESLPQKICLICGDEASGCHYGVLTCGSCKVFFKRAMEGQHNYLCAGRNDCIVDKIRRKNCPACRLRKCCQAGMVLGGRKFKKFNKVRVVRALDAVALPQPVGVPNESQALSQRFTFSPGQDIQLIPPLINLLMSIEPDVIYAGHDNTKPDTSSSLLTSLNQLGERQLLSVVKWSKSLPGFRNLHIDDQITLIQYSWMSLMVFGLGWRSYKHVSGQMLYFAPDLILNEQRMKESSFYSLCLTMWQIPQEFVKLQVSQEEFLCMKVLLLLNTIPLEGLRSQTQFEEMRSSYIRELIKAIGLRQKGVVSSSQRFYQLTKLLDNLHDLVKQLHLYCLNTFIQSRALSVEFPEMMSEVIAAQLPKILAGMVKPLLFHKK
Description: as §1, §2
For PR binding assays, [^3H]Prog (˜36,000 dpm (˜0.8 nM)), PRA cytosol (˜40 μg protein), test compounds and binding buffer were mixed in a total volume of 200 μL and incubated at 4° C. at overnight in a plate shaker. Specific binding was defined as the difference between binding of [^3H]Prog in the absence and in the presence of 3 μM unlabelled Prog.
as §3, §4

Row | Structure (SMILES) | Ki [1] | Ki [2] | melting point
1 | COc1cc2c(c3c1-c1ccccc1OC3c1ccccc1)C(C)=CC(C)(C)N2 (stereo not drawn) [Example 1, 2,5-dihydro-11-methoxy-5-phenyl-2,2,4-trimethyl-1H-[1]benzopyrano[3,4-f]quinoline] | 230 nM | 10000 nM | –
2 | C=CCC1Oc2ccccc2-c2c(OC)cc3c(c21)C(C)=CC(C)(C)N3 (stereo not drawn) [Example 2, 2,5-dihydro-11-methoxy-5-(2-propenyl)-2,2,4-trimethyl-1H-[1]benzopyrano[3,4-f]quinoline] | 640 nM | 14000 nM | 84 to 86 °C
3 | COc1cc2c(c3c1-c1ccccc1OC3c1cc(Cl)cc(Cl)c1)C(C)=CC(C)(C)N2 (stereo not drawn) [Example 3, 2,5-dihydro-11-methoxy-5-(3,5-dichlorophenyl)-2,2,4-trimethyl-1H-[1]benzopyrano[3,4-f]quinoline] | 200 nM | 10000 nM | –
4 | C=C1CC(C)(C)Nc2cc(OC)c3c(c21)C(c1cc(Cl)cc(Cl)c1)Oc1ccccc1-3 (stereo not drawn) [Example 4, 2,3,5-trihydro-11-methoxy-5-(3,5-dichlorophenyl)-2,2,4-dimethyl-4-methylene-1H-[1]benzopyrano[3,4-f]quinoline] | 270 nM | 8600 nM | –
